# Assay results taken from patent publication US7556939B2, “Identification and characterization of racemases, definition of protein signatures, and a test for detecting D-amino acid and for screening molecules capable of inhibiting the activity of racemase, especially proline racemase” (Institut Pasteur, priority 2003, dated 2009).
# Several values for one entry are separate records, joined by “and”; a condition that tells them apart may be missing. Identical values can stand only once.
# Tests used:
# [1] = biological target: T1, D-AAO (Sus scrofa, UniProt P00371); test: D-AAO/HRP microplate test for detection of D-amino acids; format: biochemical, swine
# T1 construct: purchased Sigma A-5222; host or cells: swine kidney
# T1 sequence (P00371 whole entry): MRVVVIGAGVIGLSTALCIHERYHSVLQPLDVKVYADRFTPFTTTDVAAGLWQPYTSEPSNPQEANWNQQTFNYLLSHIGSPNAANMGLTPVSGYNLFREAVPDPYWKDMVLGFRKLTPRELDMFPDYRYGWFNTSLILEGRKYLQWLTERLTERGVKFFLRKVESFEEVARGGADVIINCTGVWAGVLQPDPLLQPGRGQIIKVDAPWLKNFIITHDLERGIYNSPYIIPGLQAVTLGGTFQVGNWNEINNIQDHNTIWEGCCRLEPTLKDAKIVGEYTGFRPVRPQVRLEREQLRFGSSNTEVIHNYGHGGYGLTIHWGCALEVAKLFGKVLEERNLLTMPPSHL
# Description: (§1) • (3) Prepare a mixture containing the enzymes (D-AAO/HRP Mix), as follows: The amounts are given for one well, provided that the final volume will be 100 μl with the racemase products or the substrate:
# (§2) This mixture is kept in the ice until use. • (4) The quantitation reaction starts when 13 μl of D-AAO/HRP mix is added to the reaction well. • (5) The microplate is covered with an adhesive coverlid and it is left in the dark at 37° C. between […] and 2 hours. The reaction can be monitored by eye whenever a color gradient matches the D-amino acid concentration of the standard dilutions. • (6) The microplate is read with a microplate spectrophotometer using a filter of at 490 nm.
# The D-AAO/HRP test described here above can also be used for this purpose with slight modifications. For that purpose, the racemase reaction step should be skipped and the microplate test should start straightforward at the II-1-2.1-2 step described above with the following remarks:
# 1) Standard: It should not be an equimolar mixture of D- and L-amino acid, but rather a serial dilution of D-Amino acids. The choice of amino acid is made according to the interest of the D-amino acid under investigation. The final volume in wells should be of 87 μl.
# 2) Negative control: It is made with the L-enantiomer of the D-amino acid under investigation. The final volume should be 87 μl.
# 3) Blank: It is made with 87 μl buffer*. (See paragraph II.1.1 Materials.)
# 4) Samples: The samples to be tested should be adjusted to pH 8,3 with buffer* and their final volumes should be of 87 μl per well.
# Obs: Standards, negative controls, samples to test and blanks should be made in duplicates. They are dispensed into the wells of the microplate.
# 5) Then, the procedure follows steps 3) to 6), as above.
# Different L- and D-amino acids were tested, namely Tyrosine (Tyr), Valine (Val), Threonine (Thr), Glutamic acid (Glu), Lysine (Lys) and Tryptophan (Try).
# [2] = test system: B cell; conditions: cited from earlier work
# [3] = biological target: T1, D-AAO; test: D-AAO/HRP reaction on D-proline in presence of PAC or L-proline; format: biochemical, swine; conditions: D-Proline 0.1 mM to 40 mM, OD 490 nm
# [4] = biological target: T2, TcPRAC (Trypanosoma cruzi, UniProt Q4DA80); test: Racemisation inhibition, detection with polarimeter; format: biochemical
# T2 construct: made in house
# Description: (§3) The reaction was stopped by incubating for 10 min at 80° C. and freezing. Water (1 ml) was then added, and the optical rotation was measured in a polarimeter 241 MC (Perkin Elmer, Montigny le Bretonneux, France) at a wavelength of 365 nm, in a cell with a path length of 10 cm, at a precision of 0.001 degree. […] All reagents were purchased from Sigma.
# [5] = biological target: T2, TcPRAC; test: D-AAO/HRP microplate test of racemisation inhibition; format: biochemical; conditions: concentration giving 50% inhibition of racemisation
# Description: (1) The volumes are indicated for a single well, but duplicates are mandatory. Leave enough raws of the microplate empty for standard and controls to be used in further steps. Distribute the following volumes per well reactions: • a) without inhibitor (Vol=QS 81 μl)
# A range of concentrations between 5 mM and 1 mM can be planned for the inhibitor. It should be diluted in sodium acetate buffer 0.2 M pH 6.0.
# • (2) Cover the microplate with an adhesive coverlid and leave for […] at 37° C. • (3) At the end of racemisation, 5.5 μl of 0.235M Pop are added in each reaction well of the microplate in order to shift pH from pH6.0 to pH 8.3.
# It is used for assessing the amount of D-Proline formed after racemization. The standard range is made in microtubes, as follows:
# as §1, §2
# [6] = biological target: T3, rTcPRACA (Trypanosoma cruzi, UniProt Q4DA80); test: Kinetic and inhibition assays of L-proline racemization, polarimetric; format: biochemical
# T3 construct: resulting TcPRACA* fragment encoding for the mature proline racemase was purified and cloned; His6 (C); made in house; host or cells: E. coli BL21 (DE3)
# Description: (§4) The progress of racemization reaction was monitored polarimetrically, as previously described (13). […] Values obtained were confirmed by using the Kaleïdagraph® program and Michaelis-Menten equation. […] C.
# (§5) Optical rotation was measured every 5 sec during 10 min and every 5 min to 1 hour. […] Calculations were done using the Kaleïdagraph program. […] Graphic representation and linear curve regression allowed the determination of Ki as [PAC]/[(slope with PAC/slope without PAC)−1]. All reagents were purchased from Sigma.
# [7] = biological target: rTcPRACB (Trypanosoma cruzi, UniProt Q868H8); test: as above; format: biochemical
# Sequence of rTcPRACB (Q868H8 whole entry): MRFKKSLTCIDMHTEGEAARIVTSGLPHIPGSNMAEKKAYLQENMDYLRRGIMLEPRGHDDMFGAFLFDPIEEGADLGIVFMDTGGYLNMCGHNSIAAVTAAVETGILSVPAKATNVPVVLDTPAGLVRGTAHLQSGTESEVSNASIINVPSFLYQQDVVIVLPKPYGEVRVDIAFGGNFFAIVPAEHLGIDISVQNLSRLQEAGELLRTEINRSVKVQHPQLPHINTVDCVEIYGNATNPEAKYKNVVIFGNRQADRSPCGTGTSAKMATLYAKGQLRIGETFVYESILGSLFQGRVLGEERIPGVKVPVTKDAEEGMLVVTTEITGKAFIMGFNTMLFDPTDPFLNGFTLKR
# Description: as §4, §5
# [8] = test system: non-infected monkey cell cultures
# [9] = biological target: T2, TcPRAC; conditions: cited from earlier work
# [10] = Stability of recombinant proline racemases under different storage conditions; format: physicochemical
# Description: After purification on nickel-nitrilotriacetic acid agarose column, recombinant proteins were kept for 10 days in nickel column buffer (20 mM Tris/500 mM NaCl/500 mM imidazol, pH 8.0) at room temperature (RT) or at +4° C., or either diluted in 50% glycerol and maintained at −20° C. (Gly/−20° C.) or in optimum pH buffer (NaOAc, pH 6.0) at 4° C. Recombinant enzymes were precipitated in (NH4)2SO4 and kept in solution at 4° C. or pellet dried at −20° C. Racemase assays were performed for 30 min at 37° C.
# [11] = Racemization assays, polarimetric; format: biochemical; conditions: for % racemization / Optical rotation: 5 μg protein, 40 mM L-proline, pH 6.0, 37° C.
# Description: as §3
# Optical rotation was measured and % of racemization was determined as described in Example 5.
# Optical rotation was measured at different times and % of racemization was determined as described in Example 5.
# [12] = test system: Trypanosoma cruzi; test: Immunization of mice and infectious challenge with live Trypanosoma cruzi; format: in vivo; conditions: mice, sub-mitogenic doses
# [13] = D-enantiomers, 6.25 mM, duplicate wells
# [14] = L-enantiomers, 12.5 mM, duplicate wells
molecule,measurement,setting,value
"N[C@@H](CCC(=O)O)C(=O)O [D-Glu, Glutamic acid]",Optical density at 490 nm,[1]; [13],0.147 and 0.116
"NCCCC[C@H](N)C(=O)O [D-Lys, Lysine]",Optical density at 490 nm,[1]; [13],0.243 and 0.157
"C[C@@H](O)[C@H](N)C(=O)O [D-Thr, Threonine]",Optical density at 490 nm,[1]; [13],0.215 and 0.157
"N[C@@H](Cc1c[nH]c2ccccc12)C(=O)O [D-Try, Tryptophan]",Optical density at 490 nm,[1]; [13],0.615 and 0.662
"N[C@@H](Cc1ccc(O)cc1)C(=O)O [D-Tyr, Tyrosine]",Optical density at 490 nm,[1]; [13],1.317 and 0.991
"CC(C)[C@H](N)C(=O)O [D-Val, Valine]",Optical density at 490 nm,[1]; [13],1.683 and 1.612
"O=C(O)[C@H]1CCCN1 [D-pro, D-proline]",Optical density at 490 nm,[1]; 0.05 mM,0.173
same,Optical density at 490 nm,[1]; 0.09 mM,0.213 and 0.215
same,Optical density at 490 nm,[1]; 0.19 mM,0.308 and 0.32
same,Optical density at 490 nm,[1]; 0.39 mM,0.496 and 0.504
same,Optical density at 490 nm,[1]; 0.77 mM,0.809 and 0.824
same,Optical density at 490 nm,[1]; 1.55 mM,1.234 and 1.221
same,Optical density at 490 nm,[1]; 3.09 mM,1.716 and 1.879
same,Optical density at 490 nm,[1]; 6.19 mM,1.983 and 1.949
same,Optical density at 490 nm,[1]; 12.37 mM,1.814 and 1.976
same,Optical density at 490 nm,[1]; 24.75 mM,1.757 and 1.885
same,Optical density at 490 nm,[1]; 49.5 mM,1.961 and 2.004
"N[C@@H](CCC(=O)O)C(=O)O [L-Glu, Glutamic acid]",Optical density at 490 nm,[1]; [14],0.131 and 0.141
"NCCCC[C@H](N)C(=O)O [L-Lys, Lysine]",Optical density at 490 nm,[1]; [14],0.125 and 0.131
"C[C@@H](O)[C@H](N)C(=O)O [L-Thr, Threonine]",Optical density at 490 nm,[1]; [14],0.124 and 0.128
"N[C@@H](Cc1c[nH]c2ccccc12)C(=O)O [L-Try, Tryptophan]",Optical density at 490 nm,[1]; [14],0.131 and 0.138
"N[C@@H](Cc1ccc(O)cc1)C(=O)O [L-Tyr, Tyrosine]",Optical density at 490 nm,[1]; [14],0.193 and 0.141
"CC(C)[C@H](N)C(=O)O [L-Val, Valine]",Optical density at 490 nm,[1]; [14],0.135 and 0.129
"O=C(O)c1ccc[nH]1 [PAC, pyrrole-2-carboxylic acid]",effect of TcPRAC inhibition on TcPRAC B cell mitogenic ability,[2],total loss
same,influence on DAAO/HRP reaction,[3],does not influence
same,IC50,[4],1000 µM
same,IC50,[5]; 10 mM L-Proline,45 µM and 50 µM
same,IC50,[5]; 20 mM L-Proline,170 µM
same,IC50,[5]; 40 mM L-Proline,220 µM
same,Ki,[6],5.7 µM
same,Ki,[7],3.6 µM
same,interference with cellular growth,[8],do not interfere with cellular growth
NC(=O)CI [iodoacetamide],TcPRAC enzymatic activity after alkylation,[9],abolished
O=C(O)CI [iodoacetate],TcPRAC enzymatic activity after alkylation,[9],abolished
"rTcPRACA: recombinant C-terminal His6-tagged T. cruzi proline racemase, 45 kDa secreted isoform, produced in E. coli (protein, left off: small tags and cut ends, recombinant C-terminal His6-tagged T. cruzi proline racemase, 45 kDa secreted isoform, produced in E. coli) GQEKLLFDQKYKIIKGEKKEKKKNQRANRREHQQKREIMRFKKSFTCIDMHTEGEAARIVTSGLPHIPGSNMAEKKAYLQENMDYLRRGIMLEPRGHDDMFGAFLFDPIEEGADLGMVFMDTGGYLNMCGHNSIAAVTAAVETGIVSVPAKATNVPVVLDTPAGLVRGTAHLQSGTESEVSNASIINVPSFLYQQDVVVVLPKPYGEVRVDIAFGGNFFAIVPAEQLGIDISVQNLSRLQEAGELLRTEINRSVKVQHPQLPHINTVDCVEIYGPPTNPEANYKNVVIFGNRQADRSPCGTGTSAKMATLYAKGQLRIGETFVYESILGSLFQGRVLGEERIPGVKVPVTKDAEEGMLVVTAEITGKAFIMGFNTMLFDPTDPFKNGFTLKQ",% of preservation of proline racemase activity,"[10]; 10 days, 50% glycerol, −20° C. (Gly/−20° C.)",62.9%
same,% of preservation of proline racemase activity,"[10]; 10 days, NaOAc pH 6, 4° C.",31.0%
same,% of preservation of proline racemase activity,"[10]; 10 days, column buffer pH 8.0, +4° C.",65% and 66.5%
same,% of preservation of proline racemase activity,"[10]; 10 days, column buffer pH 8.0, RT",16.0%
same,loss of activity,"[10]; 10 days, room temperature, 0.5 M imidazol buffer pH 8.0",84%
same,% of preservation of proline racemase activity,"[10]; (NH4)2SO4 precipitated, in solution, 4° C.",53.9%
same,% of preservation of proline racemase activity,"[10]; (NH4)2SO4 precipitated, pellet dried, −20° C.",100.0%
same,% of preservation of proline racemase activity,"[10]; CTRL, freshly purified proteins",100.0%
same,temperature of maximal enzyme activity,[11],37 °C
same,% racemization,[11]; 0 min,0%
same,Optical rotation,[11]; 0 min,−0.385
same,enzyme activity after heating,[11]; 5 min at 80° C.,abolished
same,% racemization,[11]; 10 min,22%
same,Optical rotation,[11]; 10 min,−0.300
same,% racemization,[11]; 30 min,58%
same,Optical rotation,[11]; 30 min,−0.162
same,% racemization,[11]; 60 min,77%
same,Optical rotation,[11]; 60 min,−0.088
"TcPRAC: Trypanosoma cruzi proline racemase, B cell mitogen, used for immunization of mice (protein, left off: small tags and cut ends, Trypanosoma cruzi proline racemase, B cell mitogen, used for immunization of mice) GQEKLLFDQKYKIIKGEKKEKKKNQRANRREHQQKREIMRFKKSFTCIDMHTEGEAARIVTSGLPHIPGSNMAEKKAYLQENMDYLRRGIMLEPRGHDDMFGAFLFDPIEEGADLGMVFMDTGGYLNMCGHNSIAAVTAAVETGIVSVPAKATNVPVVLDTPAGLVRGTAHLQSGTESEVSNASIINVPSFLYQQDVVVVLPKPYGEVRVDIAFGGNFFAIVPAEQLGIDISVQNLSRLQEAGELLRTEINRSVKVQHPQLPHINTVDCVEIYGPPTNPEANYKNVVIFGNRQADRSPCGTGTSAKMATLYAKGQLRIGETFVYESILGSLFQGRVLGEERIPGVKVPVTKDAEEGMLVVTAEITGKAFIMGFNTMLFDPTDPFKNGFTLKQ",specific antibody responses directed to TcPRAC,[12],high levels of specific antibody responses
same,immunoprotection against infectious challenge,[12]; challenge with live Trypanosoma cruzi,high levels of immunoprotection
